Key:
[1] = biological target: T1, CB1R (Homo sapiens, UniProt P21554, C107A/C139A/C149A/C238A/C355A/C382A/C386A/C415A/C431A/C449A/C98A/R336C); assay: Bimane fluorescence of TM6-labeled minimal cysteine CB1R; type: biochemical; settings: 10 μM ligand; apo 459 nm
T1 construct: N-terminal FLAG tag and C-terminal histidine tag was added to human full-length CB1; FLAG (N); histidine tag (C); made in house; host or cells: Spodoptera frugiperda Sf9 (baculovirus)
Description: A minimal cysteine version of CB1R was generated[73] where all the cysteine residues (except C256 and C264) were mutated to alanine. […] Excess label was removed using size exclusion chromatography on a Superdex 200 10/300 Increase column in 20 mM HEPES pH 7.5, 100 mM NaCl and 0.01% MNG/0.001% CHS. Bimane-labeled CB1R at […] was incubated with ligands (10 μM) for one hour at room temperature. Fluorescence data was collected at room temperature in a 150 μL cuvette with a FluorEssence v3.8 software on a Fluorolog instrument (Horiba) in photon-counting mode. Bimane fluorescence was measured by excitation at 370 nm with excitation and emission bandwidth passes of 4 nm. The emission spectra were recorded from 410 to 510 nm with 1 nm increment and 0.1 s integration time.

[2] = system: C56BL/6 mice; assay: Rotarod test of sedation; type: in vivo, mouse; settings: for dose showing motor deficits: rotarod test
Description: (§1) Hindpaw mechanical thresholds were determined with von Frey filaments using the up-down method. […] Each training has three sessions of five min. each.

[3] = biological target: T2, hCB1 (Homo sapiens, UniProt P21554); assay: Cerep HTRF cAMP inhibition assay, hCB1 CHO-K1 cells; type: cell-based
Description: The hCB1 CHO-K1 cells are suspended in HBSS buffer (Invitrogen) complemented with 20 mM HEPES (pH 7.4), then distributed in microplates at a density of 5.103 cells/well in the presence of either of the following: HBSS (basal control), the reference agonist at 30 nM (stimulated control) or the test compounds. […] Following 30 min incubation at 37°C, the cells are lysed, and the fluorescence acceptor (D2-labeled cAMP) and fluorescence donor (anti-cAMP antibody labeled with europium cryptate) are added. […] Each measurement was done in triplicate.

[4] = system: C56BL/6 mice; assay: Mechanical thresholds (von Frey), SNI model of neuropathic pain and naive mice; type: in vivo, mouse
Description: as §1
Under isoflurane anesthesia, two of the three branches of the sciatic nerve were ligated and transected distally, leaving the sural nerve intact. Behavior was tested 7 to 14 days after injury.

[5] = system: GPR55, GPR18, GPR119; assay: PRESTO-Tango GPCRome arrestin-recruitment screen; type: cell-based; settings: tested at 10 μM
Description: (§2) Compound ‘4042 was tested at 10 μM for off-target activity against a panel of 320 non-olfactory GPCRs using PRESTO-Tango GPCRome arrestin-recruitment assay, as described. Receptors with at least three-fold increased relative luminescence over corresponding basal activity are potential positive hits, and were tested in dose response follow-up studies. Compound ‘4042 was further tested at 1 μM for off-target activity at a panel of 45 common GPCR and non-GPCR drug targets. Receptors with at least 50% displaced radioligand are potential positive hits and were tested in dose response follow-up studies. Screening was performed by the National Institutes of Mental Health Psychoactive Drug Screen Program (PDSP)[81].

[6] = biological target: T3, hCB2 (Homo sapiens, UniProt P34972); assay: Radioligand competition binding with [3H]-CP-55,940, HEK293 cells stably expressing human CB2R; set-up: expressed in transfected cells; settings: Fig. S8, read-out: hCB2 pKi (converted)
Description: The binding affinities of the compounds were obtained by competition binding using membrane preparations from rat brain (source of CB1) or HEK293 cells stably expressing human CB2R receptors and [^3H]-CP-55,940 as the radioligand, as described. The results were analyzed using nonlinear regression to determine the IC50 and Ki values for each ligand (Prism by GraphPad Software, Inc., San Diego, CA). The Ki values are expressed as the mean of two to three experiments each performed in triplicate.

[7] = biological target: T2, hCB1; assay: GloSensor cAMP accumulation assay; type: cell-based; set-up: host or cells: HEK293 (HEK293SL clone), transient; settings: for Emax: read-out: hCB1 Glosensor cAMP Emax [95% CI]
Description: The results were analysed using GraphPad Prism 9.1. Each experiment was performed in triplicate and functional IC50 values were determined from the mean of three independent experiments.

[8] = biological target: T3, hCB2; assay: Cerep cAMP assay; type: cell-based
[9] = system: C56BL/6 mice; assay: Formalin test; type: in vivo, mouse; settings: 0.2 mg/kg i.p., 60 min observation
Description: Thirty minutes after an i.p. injection of the compounds, mice received an intraplantar injection of a 20μl solution containing 2% formalin (Acros Organics) and we recorded the time mice spent licking/biting/guarding (nocifensive behaviors) the injected hindpaw over the next 60 min.

[10] = system: melatonin-1 (MT1R), ghrelin (GHSR), Sigma1 and peripheral benzodiazepine receptors; assay: PDSP off-target secondary validation (dose response) assays; type: cell-based; settings: read-out: EC50 at off-target receptors (weak partial agonism)
Description: as §2

[11] = system: C56BL/6 mice; assay: CFA-induced inflammatory pain model, Hargreaves test; type: in vivo, mouse; settings: 0.2 mg/kg i.p.
Description: as §1
The CFA model of chronic inflammation was induced as described previously. Briefly, CFA (Sigma) was diluted 1:1 with saline and vortexed for 30 min. When fully suspended, we injected 20 μL of CFA into one hindpaw. Heat thresholds were measured before the injection (baseline) and 3 days after the injection using the Hargreaves test.

[12] = biological target: T2, hCB1; assay: DiscoverX PathHunter β-arrestin-2 recruitment assay; type: cell-based
Description: PathHunter cell lines (CHO-K1 lineage expressing hCB1) were expanded from freezer stocks according to standard procedures. Cells were seeded in a total volume of 20 μL into white walled, 384-well microplates and incubated at 37°C for the appropriate time prior to testing. For agonist determination, cells were incubated with sample to induce response. Intermediate dilution of sample stocks was performed to generate 5X sample in assay buffer. 5 μL of 5X sample was added to cells and incubated at 37°C or room temperature for 90 to 180 minutes. Vehicle concentration was 1%. […] Microplates were read following signal generation with a PerkinElmer EnvisionTM instrument for chemiluminescent signal detection. Compound activity was analyzed using CBIS data analysis suite (ChemInnovation, CA).
The data were analyzed in GraphPad Prism 9.1 using “dose–response-stimulation log(agonist) versus response (four parameters)” and data were presented as EC50 or pEC50 ± CIs of one independent experiment in duplicate.

T3 sequence (P34972 whole entry): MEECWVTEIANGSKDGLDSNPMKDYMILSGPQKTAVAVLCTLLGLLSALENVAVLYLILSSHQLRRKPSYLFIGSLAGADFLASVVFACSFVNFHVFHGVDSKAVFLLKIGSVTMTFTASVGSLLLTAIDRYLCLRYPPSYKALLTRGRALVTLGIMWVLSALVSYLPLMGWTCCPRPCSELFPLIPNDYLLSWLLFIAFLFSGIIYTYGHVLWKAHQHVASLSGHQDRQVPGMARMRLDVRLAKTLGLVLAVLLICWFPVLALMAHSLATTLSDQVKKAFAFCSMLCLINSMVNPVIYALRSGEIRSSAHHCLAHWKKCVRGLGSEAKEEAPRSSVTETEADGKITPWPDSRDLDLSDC
T2 sequence (P21554 whole entry): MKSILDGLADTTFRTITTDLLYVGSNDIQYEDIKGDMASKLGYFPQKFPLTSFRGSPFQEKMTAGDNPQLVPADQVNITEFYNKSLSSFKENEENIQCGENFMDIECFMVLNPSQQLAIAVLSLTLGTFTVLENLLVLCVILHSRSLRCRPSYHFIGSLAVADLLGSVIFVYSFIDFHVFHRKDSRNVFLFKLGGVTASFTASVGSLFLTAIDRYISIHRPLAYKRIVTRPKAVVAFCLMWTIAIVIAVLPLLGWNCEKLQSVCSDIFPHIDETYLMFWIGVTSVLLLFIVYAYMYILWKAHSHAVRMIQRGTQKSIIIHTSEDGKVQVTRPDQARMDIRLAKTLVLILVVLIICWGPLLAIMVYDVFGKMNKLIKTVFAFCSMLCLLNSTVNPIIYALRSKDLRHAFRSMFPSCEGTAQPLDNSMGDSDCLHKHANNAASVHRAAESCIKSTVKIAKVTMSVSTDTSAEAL
T1 sequence (P21554 whole entry C98A/C107A/C139A/C149A/C238A/R336C/C355A/C382A/C386A/C415A/C431A/C449A): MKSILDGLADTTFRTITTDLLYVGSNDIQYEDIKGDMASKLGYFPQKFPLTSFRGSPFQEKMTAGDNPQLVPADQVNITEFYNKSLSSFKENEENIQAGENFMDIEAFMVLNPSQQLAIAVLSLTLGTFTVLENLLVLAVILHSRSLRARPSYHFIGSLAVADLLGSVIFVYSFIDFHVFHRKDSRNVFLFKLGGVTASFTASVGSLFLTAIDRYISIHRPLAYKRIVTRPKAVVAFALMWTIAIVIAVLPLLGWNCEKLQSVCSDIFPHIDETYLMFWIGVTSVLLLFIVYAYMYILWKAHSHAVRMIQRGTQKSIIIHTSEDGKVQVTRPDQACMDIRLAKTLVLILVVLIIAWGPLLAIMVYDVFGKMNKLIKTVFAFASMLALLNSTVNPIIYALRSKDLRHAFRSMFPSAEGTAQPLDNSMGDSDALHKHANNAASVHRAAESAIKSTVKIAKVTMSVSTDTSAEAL

SMILES | bimane spectrum λmax [1] [nm] | window between heat-based response and sedation ([2]; rotarod) | dose showing motor deficits [2] [mg/kg] | EC50 [3] [nM] | Emax ([3]; CHO-K1, read-out: hCB1 Cerep cAMP Emax [95% CI]) [%] | effect on SNI mechanical allodynia ([4]; 0.2 mg/kg i.p.) | effect on mechanical thresholds of naïve (non-SNI) animals ([4]; 0.2 mg/kg i.p.) | effect on SNI mechanical allodynia ([4]; intrathecal, up to 100 μg/kg) | agonist activity at putative cannabinoid receptors [5] | Ki [6] [nM] | EC50 [7] [nM] | Emax [7] [%] | EC50 [8] [nM] | Emax ([8]; read-out: hCB2 Cerep cAMP Emax [95% CI]) [%] | duration of phase 1 and phase 2 nocifensive behaviors [9] | EC50 [10] [nM] | effect on paw withdrawal latency after CFA [11] | EC50 ([12]; hCB1 DiscoverX ß-arrestin recruitment EC50 [95% CI]) [nM] | EC50 ([12]; hCB1 DiscoverX ß-arrestin recruitment pEC50 [95% CI]) [nM] | Emax ([12]; read-out: hCB1 DiscoverX ß-arrestin recruitment Emax [95% CI]) [%]
COC(=O)[C@@](C)(NC(=O)c1cc(C)n(-c2cccc(C(F)(F)F)c2)n1)c1cccs1 [‘1350] | 463 | only five-fold | 0.5 | – | – | – | – | – | – | – | – | – | – | – | – | – | – | – | – | –
COC(=O)C(C)(NC(=O)c1cc(C)n(-c2cccc(C(F)(F)F)c2)n1)c1cccs1 (centres unmarked) [‘4042] | – | – | 1.0 | 0.008 | 96 | did not counter the mechanical allodynia | did not alter the mechanical thresholds | modest anti-allodynic effect | no agonist activity | 2.51 | 0.0398 | 91 | 0.0112 | 72 | profoundly decreased | > 1000 | analgesic | 2.3 | 2 | 71
COC(=O)C(NC(=O)c1cc(C)n(-c2cccc(C(F)(F)F)c2)n1)c1cccs1 (centres unmarked) [‘60154] | – | – | – | – | – | – | – | – | – | – | 25.1 | 82 | – | – | – | – | – | – | – | –

From article doi:10.1101/2023.02.27.530254, “Large library docking for cannabinoid-1 receptor agonists with reduced side effects” (bioRxiv, 2024)
